The target of assay [1] is T1, 5-lipoxygenase (Homo sapiens, UniProt P09917).
T1 construct: gene ALOX5
T1 sequence (P09917 1-674): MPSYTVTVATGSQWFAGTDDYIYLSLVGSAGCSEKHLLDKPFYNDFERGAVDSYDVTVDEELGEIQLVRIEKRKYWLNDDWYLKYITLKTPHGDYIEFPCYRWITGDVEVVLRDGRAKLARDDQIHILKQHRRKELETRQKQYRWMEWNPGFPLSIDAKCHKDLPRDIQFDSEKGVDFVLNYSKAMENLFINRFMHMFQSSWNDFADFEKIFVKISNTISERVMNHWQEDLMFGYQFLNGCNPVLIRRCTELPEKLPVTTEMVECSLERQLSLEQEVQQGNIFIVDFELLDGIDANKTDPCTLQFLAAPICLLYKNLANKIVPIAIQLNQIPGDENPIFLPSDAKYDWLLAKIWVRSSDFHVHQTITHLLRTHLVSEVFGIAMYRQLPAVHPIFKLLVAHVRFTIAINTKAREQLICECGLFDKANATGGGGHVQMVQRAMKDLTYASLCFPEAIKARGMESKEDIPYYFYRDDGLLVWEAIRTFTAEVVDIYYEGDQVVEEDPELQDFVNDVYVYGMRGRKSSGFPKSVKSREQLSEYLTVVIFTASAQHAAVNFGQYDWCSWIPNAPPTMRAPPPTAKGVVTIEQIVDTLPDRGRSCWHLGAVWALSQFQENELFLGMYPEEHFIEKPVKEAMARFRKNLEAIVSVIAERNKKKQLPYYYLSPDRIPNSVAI
Kind of assay: spectrophotometric enzyme assay at […] nm, linoleic acid substrate, human recombinant enzyme. The class given is biochemical. To be noted: read-out: Anti-inflammatory assay 5-LOX, IC50.

The target in assay [2] is T2, acetylcholinesterase (Electrophorus electricus, UniProt O42275).
T2 construct: gene ache; Type-VI-S, EC 3.1.1.7
T2 sequence (O42275 24-633): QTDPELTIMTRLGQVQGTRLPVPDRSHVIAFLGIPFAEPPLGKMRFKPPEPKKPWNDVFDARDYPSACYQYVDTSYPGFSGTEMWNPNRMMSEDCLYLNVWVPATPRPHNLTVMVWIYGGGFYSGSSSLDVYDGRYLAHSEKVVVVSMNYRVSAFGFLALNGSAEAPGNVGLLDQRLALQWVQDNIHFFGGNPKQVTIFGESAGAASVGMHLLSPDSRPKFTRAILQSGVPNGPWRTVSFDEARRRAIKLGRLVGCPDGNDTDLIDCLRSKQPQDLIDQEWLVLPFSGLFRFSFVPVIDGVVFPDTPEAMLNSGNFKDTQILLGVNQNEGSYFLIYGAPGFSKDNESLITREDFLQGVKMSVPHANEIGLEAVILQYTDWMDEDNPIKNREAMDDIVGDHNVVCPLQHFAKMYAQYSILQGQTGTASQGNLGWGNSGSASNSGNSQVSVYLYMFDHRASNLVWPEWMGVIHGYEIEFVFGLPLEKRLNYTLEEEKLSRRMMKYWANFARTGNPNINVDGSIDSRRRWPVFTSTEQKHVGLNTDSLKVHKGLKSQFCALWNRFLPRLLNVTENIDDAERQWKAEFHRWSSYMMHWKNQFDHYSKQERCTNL
Briefly: Ellman spectrophotometric assay at […] nm, electric eel enzyme. It is filed as biochemical. To be noted: read-out: Antiacetylcholinesterase assay, IC50. Background: In Ellman's method for cholinesterases, released thiocholine reacts with DTNB.

The values that follow come from article PMC3708431 (Evidence-based Complementary and Alternative Medicine : eCAM, 2013).

Broadly, the IC50 is the concentration that inhibits the measured activity by half. On to `COc1cc2ccc(=O)oc2cc1O` [SC, 7-hydroxy-6 methoxycoumarin], for which the IC50 in assay [1] turned out to be 1.76 ± 0.01 µM; in assay [2] it was 270 ± 0.02 µM.
